# According to patent publication US6958331B1, “Bradykinin receptor antagonists” (Novartis AG, priority 1999, dated 2005):
# Target: T1, human bradykinin B1 receptor (Homo sapiens, UniProt P46663)
# T1 construct: expressed in transfected cells; membranes
# T1 sequence (P46663 1-353): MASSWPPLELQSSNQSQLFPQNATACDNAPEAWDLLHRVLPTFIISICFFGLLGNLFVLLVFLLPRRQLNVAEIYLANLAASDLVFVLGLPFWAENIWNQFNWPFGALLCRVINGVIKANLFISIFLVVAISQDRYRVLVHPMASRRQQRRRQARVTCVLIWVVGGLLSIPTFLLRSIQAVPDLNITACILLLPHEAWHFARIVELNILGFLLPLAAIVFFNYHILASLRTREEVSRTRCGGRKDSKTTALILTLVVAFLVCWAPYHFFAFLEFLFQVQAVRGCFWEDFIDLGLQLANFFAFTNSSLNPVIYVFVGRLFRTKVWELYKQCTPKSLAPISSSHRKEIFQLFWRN
# Test: Test I: Bradykinin Receptor Binding Assay ([3H]desArg10-kallidin displacement, HEK 293 membranes)
# Conditions: statement in words
# Experimental: This cDNA is sequenced and subcloned into pcDNA3 (Clontech) and used to generate a cell-line which expresses the human bradykinin B1 receptor.
# Cells are grown in Mininum Essential Medium with Eade's Salts (GIBCO) supplemented with 2 mM L-glutamine, 100 units/ml penicillin, 100 μg/ml streptomycin, 1% nonessential amino acids and 10% myodone foetal calf serum (GIBCO) in a humidified atmosphere with 5% CO2 at 37° C.
# One 175 cm^2 flask with approximately 50% confluent cells is transfected with approximately 30 μg/ml HB1-pcDNA3 DNA using the calcium phosphate precipitate method of transfection. The flask of transfected cells is split 1:3 on day 2 post transfecdon to prevent overgrowth. The following day the cells are split 1:5 and selection in 700 μg/ml G418 begins. The selective medium is changed every 3-4 days. When distinct G418 resistant colonies of transfected cells are seen, approximately 4 weeks after transfection, the cells are cloned by limiting dilution and assayed for binding of [^3H]desArg^10-kallidin. […]
# Specific binding to the bradykinin B1 receptor is defined as the difference between that found in total bound tubes and that found in non-specific binding tubes. […] Mimoscintillant-40 Liquid scintillant is added to the filters and radioactivity bound is determined in a Canberra Packard Topcount scintillation counter. […]
smiles,measurement,value
"CC(C)N1CCN(C(=O)C2CCN(S(=O)(=O)c3ccc(NCC(c4ccccc4)c4ccccc4)c(C(=O)N4CCOCC4)c3)CC2)CC1 [Example 1, {2-(2,2-diphenyl-ethylamino)-5-[4-(4-Isopropyl-piperazine-1-carbonyl)-piperidine-1-sulfonyl]-pheny}-morpholin-4-yl-methanone]",active at the human B1 bradykinin receptor,active
